# Results published in US20050272766A1, “1-Glyoxylamide indolizines for treating lung and ovarian cancer” (Synta Pharmaceuticals Corp., priority 2004, published 2005).
# Marks after values point to notes of the source that are not given here.
# Tests used:
# [1] = Body weight of treated mice (summary statement, Examples 1-4); assay type: in vivo
# Description: (§1) Tumor size and body weight were scored at least twice a week throughout the experiment. Tumor size was captured utilizing CD-10C compatible electric calipers (Mitsutoyo Corp., Kawasaki) and animal weight was automatically captured from the balance (A/D, Tokyo). The tumor volume was calculated by the following formula: [Tumor volume=(Length×Width×Width)/2]. The relative tumor volume (RV) was calculated as RV=Vn/Vo, where Vn: tumor volume on day n, and Vo: initial tumor volume. Judgment was performed one day (Examples 6 and 9) or three days (Examples 7 and 8) after the last dosing.
# [2] = test system: Ma44 human lung squamous cell carcinoma; details: in vivo
# Description: (§2) Compound (1) was suspended in 1% methylcellulose solution (Wako, Osaka, 400 c.p., and distilled water) and was stored at 4° C. Paclitaxel (Sigma St. Louis, Mo.) was dissolved in dimethylsulfoxide (DMSO, Nakarai-Tesk, Tokyo) and stored at 4° C., and was prepared in a solution of 10% DMSO, 18% Cremophore RH-40 (Nikko Chemicals) and 72% distilled water before use.
# (§3) Female mice, 8 weeks old (strain BALB/c-nu/nu, CLEA Japan Inc., Tokyo) were obtained and adapted for 5 days at experimental conditions and used at 10 weeks old. Experimental conditions included temperature of 21-27° C.; relative humidity of 40-70%; ventilation>10 times/hour; fluorescent light for 12-hour light (8:00-20:00)/12-hour dark; ad libitium access to food (irradiated CA-1, CLEA Japan Inc., Tokyo) and water (Osaka city tap water).
# (§4) Statistical analyses versus control group and between selected groups were performed using a spreadsheet program to run Welch's test and Dunnett's multiple comparison test.
# as §1
# (§5) Animal experiments were performed using Tumor Measuring & Tracking System (VISIONS Co. Ltd., Tokyo). An experiment consisted of 8 mice per group (Examples 6 and 9) or 6 mice per group (Examples 7 and 8). Tumor samples were implanted subcutaneously into the back of mice (day 0). Tumor-implanted animals were randomized to groups based upon tumor volume and body weight when tumor volume reached approximately 100-200 mm^3. The control group was given vehicle (1% methylcellulose solution). The doses were calculated on the basis of up-to-date body weights of the mice (0.1 mL/10 g body weight). The mice were non-fasted during an entire course of the experiment.
# (§6) Ma44 human lung squamous cell carcinoma was maintained by in vitro passage with using Eagle's Minimum Essential Medium (Nissui Pharmaceutical Co., Tokyo) supplemented with 10% fetal calf serum (Life Technologies Inc, MD). Ma44 cells (5×10^5/0.1 mL) were implanted and the animals were randomized at 11 days. Compound (1) was orally administered daily for 14 days. Paclitaxel solution (DMSO/Cremophore/distilled water) was prepared as above and administered intravenously 6 times (3 times per week×2).
# RERF-LC-AI/TXL carcinoma [3] = details: in vivo
# Description: as §2, §3, §4, §1, §5
# (§7) The tumor sample implanted was a fragment of RERF-LC-AI/TXL carcinoma. Implanted animals were randomized at 11 days. Compound (1) was orally administered daily for 14 days. Paclitaxel solution (DMSO/Cremophore/distilled water) was prepared as above. and administered intravenously 6 times (3 times per week×2, day 11, 13, 15, 18, 20 and 22).
# [4] = test system: BG-1-TR1 human ovarian cancer; experiment: Antitumor efficacy against BG-1-TR1 human ovarian cancer implanted subcutaneously in nude mice
# Description: (§8) Compound (1) was suspended in 1% methylcellulose solution (Wako, Osaka, 400 c.p., and distilled water) and was stored at 4° C.
# as §3, §4, §1, §5
# The tumor sample implanted included BG-1-TR1 cells (3×10^6/0.1 ml of 5 mg/ml matrigel solution, BD Biosciences, Bedford, Mass.). Implanted animals were randomized at 20 days. Compound (1) was orally administered daily for 14 days from day 20 to 33.
# RERF-LC-AI carcinoma = experiment: Antitumor efficacy against RERF-LC-AI human lung cancer fragment implanted subcutaneously in nude mice; details: for % inhibition: day 26
# Description: as §8, §3, §4
# Tumor size and body weight were scored at least twice a week throughout the experiment. Tumor size was captured utilizing CD-10C compatible electric calipers (Mitsutoyo Corp., Kawasaki) and animal weight was automatically captured from the balance (A/D, Tokyo). The tumor volume was calculated by the following formula: [Tumor volume=(Length×Width×Width)/2]. The relative tumor volume (RV) was calculated as RV=Vn/Vo, where Vn: tumor volume on day n, and Vo: initial tumor volume.
# Animal experiments were performed using Tumor Measuring & Tracking System (VISIONS Co. Ltd., Tokyo). […] Tumor samples were implanted subcutaneously into the back of mice (day 0). Tumor-implanted animals were randomized to groups based upon tumor volume and body weight when tumor volume reached approximately 100-200 mm^3. The control group was given vehicle (1% methylcellulose solution). The doses were calculated on the basis of up-to-date body weights of the mice (0.1 mL/10 g body weight). The mice were non-fasted during an entire course of the experiment.
# The tumor sample implanted was a fragment of RERF-LC-AI carcinoma. Implanted animals were randomized at 10 days. Compound (1) was orally administered daily for 14 days.
# [5] = test system: Ma44 human lung squamous cell carcinoma; experiment: Antitumor efficacy against Ma44 human lung squamous cell carcinoma implanted subcutaneously in nude mice; details: for % inhibition: day 27; for RV on day 27 (Mean +/- SD), relative tumor volume: nude mice; for growth inhibition (% inhibition): p<0.01
# Description: as §2, §3, §4, §1, §5, §6
# RERF-LC-AI/TXL carcinoma [6] = experiment: Antitumor efficacy against RERF-LC-AI/TXL human lung cancer fragment implanted subcutaneously in nude mice; details: for % inhibition: day 24
# Description: as §2, §3, §4, §1, §5, §7
# [7] = 50 mg/kg x 14, oral daily, 5 surviving mice
# [8] = 25 mg/kg x 14, oral daily, day 11-24
# [9] = 20 mg/kg x 6, intravenous, day 10, 12, 14, 17, 19 and 21
# [10] = 20 mg/kg, maximum tolerated dose for nude mice in this schedule
compound,measurement,setting,value
"Cc1cc(NC(=O)C(=O)c2cc(Cc3ccc(C#N)cc3)n3ccccc23)sn1 [Compound (1), 2-(3-(4-cyanobenzyl)indolizin-1-yl)-N-(3-methylisothiazol-5-yl)-2-oxoacetamide]",change in body weight,[1],Minimal change in body weight
same,mice found dead,[2],one of eight mice
same,mice found dead,RERF-LC-AI/TXL carcinoma [3],All mice
same,% inhibition,"[4]; 12.5 mg/kg x 14, oral daily",27.4%
same,"MBWL, maximum body weight loss (% of initial)","[4]; 12.5 mg/kg x 14, oral daily",0%
same,"RV (Mean +/- SD), relative tumor volume on day 34","[4]; 12.5 mg/kg x 14, oral daily, from day 20 to 33",1.6 ± 0.7
same,body weight losses,[4]; 25 mg/kg and 50 mg/kg daily oral dosing groups,mild
same,% inhibition,"[4]; 25 mg/kg x 14, oral daily",27.5%
same,"RV (Mean +/- SD), relative tumor volume on day 34","[4]; 25 mg/kg x 14, oral daily, from day 20 to 33",1.6 ± 0.5
same,"MBWL, maximum body weight loss (% of initial)","[4]; 25 mg/kg x 14, oral daily, maximum on d24",1.9% (d24)
same,"RV (Mean +/- SD), relative tumor volume on day 34","[4]; 50 mg/kg x 14, oral daily, from day 20 to 33",0.9 ± 0.3
same,"MBWL, maximum body weight loss (% of initial)","[4]; 50 mg/kg x 14, oral daily, maximum on d34",8.7% (d34)
same,percent inhibition of cancer cells,"[4]; oral administration, BG1-TR1, summary",up to 61%
same,"MBWL, maximum body weight loss (% of initial)","RERF-LC-AI carcinoma; 25 mg/kg x 14, oral daily",4%
same,"RV on day 26 (Mean +/- SD), relative tumor volume","RERF-LC-AI carcinoma; 25 mg/kg x 14, oral daily, day 10-23, nude mice",14.1 ± 73
same,% inhibition,"RERF-LC-AI carcinoma; 25 mg/kg x 14, oral daily",64.9%
same,Toxic death,"RERF-LC-AI carcinoma; 50 mg/kg x 14, oral daily, 1 of 6 mice, on day 21",one of six mice
same,"MBWL, maximum body weight loss (% of initial)",RERF-LC-AI carcinoma; [7],14%
same,"RV on day 26 (Mean +/- SD), relative tumor volume",RERF-LC-AI carcinoma; [7],8.2 ± 1.9
same,% inhibition,"RERF-LC-AI carcinoma; 50 mg/kg x 14, oral daily",79.7%
same,Toxic death,"RERF-LC-AI carcinoma; 75 mg/kg x 14, oral daily, 6 mice, on day 17-20",All mice
same,percent inhibition of cancer cells,"RERF-LC-AI carcinoma; oral administration, RERF-LC-AI, summary",≤ 80%
same,"MBWL, maximum body weight loss (% of initial)","[5]; 25 mg/kg x 14, oral daily",3%
same,% inhibition,[5]; [8],35.2%
same,"RV on day 27 (Mean +/- SD), relative tumor volume",[5]; [8],10.0 ± 1.4
same,body weight losses,[5]; 50 mg/kg daily oral dosing,mild
same,growth inhibition (% inhibition),[5]; 50 mg/kg daily oral dosing,63.9%
same,"MBWL, maximum body weight loss (% of initial)","[5]; 50 mg/kg x 14, oral daily",5%
same,% inhibition,"[5]; 50 mg/kg x 14, oral daily",68.8%
same,"RV on day 27 (Mean +/- SD), relative tumor volume","[5]; 50 mg/kg x 14, oral daily",4.8 ± 1.7
same,growth inhibition (% inhibition),"[5]; lower dose, daily oral",36.2%
same,percent inhibition of cancer cells,"[5]; oral administration, Ma44, summary",≤ 64%
same,"MBWL, maximum body weight loss (% of initial)","RERF-LC-AI/TXL carcinoma [6]; 25 mg/kg x 14, oral daily",1%
same,"RV on day 24 (Mean +/- SD), relative tumor volume","RERF-LC-AI/TXL carcinoma [6]; 25 mg/kg x 14, oral daily, from day 10 to 23, nude mice",26.49 ± 13.41
same,% inhibition,"RERF-LC-AI/TXL carcinoma [6]; 25 mg/kg x 14, oral daily",36.2%
same,growth inhibition,"RERF-LC-AI/TXL carcinoma [6]; 50 mg/kg daily oral dosing, evaluation day 27",68.8%
same,"MBWL, maximum body weight loss (% of initial)","RERF-LC-AI/TXL carcinoma [6]; 50 mg/kg x 14, oral daily",3%
same,Toxic death,"RERF-LC-AI/TXL carcinoma [6]; 50 mg/kg x 14, oral daily, 1 mouse, on day 16",Toxic
same,"RV on day 24 (Mean +/- SD), relative tumor volume","RERF-LC-AI/TXL carcinoma [6]; 50 mg/kg x 14, oral daily, 7 surviving mice",15.01 ± 6.45
same,% inhibition,"RERF-LC-AI/TXL carcinoma [6]; 50 mg/kg x 14, oral daily",63.9%
same,percent inhibition of cancer cells,"RERF-LC-AI/TXL carcinoma [6]; oral administration, RERF/TXL, summary",≤ 67%
"CC(=O)O[C@H]1C(=O)[C@@]2(C)[C@H]([C@H](OC(=O)c3ccccc3)[C@]3(O)C[C@H](OC(=O)[C@H](O)[C@@H](NC(=O)c4ccccc4)c4ccccc4)C(C)=C1C3(C)C)[C@]1(OC(C)=O)CO[C@@H]1C[C@@H]2O [Paclitaxel, reference compound]",% inhibition,"[4]; 20 mg/kg x 6, intravenous",8.3%
same,"RV (Mean +/- SD), relative tumor volume on day 34","[4]; 20 mg/kg x 6, intravenous, day 20, 22, 24, 27, 29, 31, nude mice",2.0 ± 0.7
same,"MBWL, maximum body weight loss (% of initial)","[4]; 20 mg/kg x 6, intravenous, maximum on d27",4.5% (d27)
same,antitumor activity,"[4]; 20 mg/kg, maximum tolerated dose for nude mice in this schedule, BG-1 cells",neither significant nor effective
same,"MBWL, maximum body weight loss (% of initial)","RERF-LC-AI carcinoma; 20 mg/kg x 6, intravenous",7%
same,"RV on day 26 (Mean +/- SD), relative tumor volume",RERF-LC-AI carcinoma; [9],3.1 ± 0.8**^e)
same,% inhibition,"RERF-LC-AI carcinoma; 20 mg/kg x 6, intravenous",92.2%
same,"MBWL, maximum body weight loss (% of initial)","[5]; 20 mg/kg x 6, intravenous",3%
same,"RV on day 27 (Mean +/- SD), relative tumor volume","[5]; 20 mg/kg x 6, intravenous, day 11, 13, 15, 18, 20 and 22",2.8 ± 0.4^**e)
same,% inhibition,"[5]; 20 mg/kg x 6, intravenous",81.8%
same,antitumor activity,[5]; [10],neither significant nor effective
same,"MBWL, maximum body weight loss (% of initial)","RERF-LC-AI/TXL carcinoma [6]; 10 mg/kg x 6, intravenous",0%
same,"RV on day 24 (Mean +/- SD), relative tumor volume","RERF-LC-AI/TXL carcinoma [6]; 10 mg/kg x 6, intravenous, day 10, 12, 14, 17, 19 and 21",31.23 ± 6.69
same,% inhibition,"RERF-LC-AI/TXL carcinoma [6]; 10 mg/kg x 6, intravenous",24.8%
same,"MBWL, maximum body weight loss (% of initial)","RERF-LC-AI/TXL carcinoma [6]; 20 mg/kg x 6, intravenous",0%
same,"RV on day 24 (Mean +/- SD), relative tumor volume",RERF-LC-AI/TXL carcinoma [6]; [9],32.87 ± 10.03
same,% inhibition,"RERF-LC-AI/TXL carcinoma [6]; 20 mg/kg x 6, intravenous",20.9%
same,growth inhibition,RERF-LC-AI/TXL carcinoma [6]; [10],81.8%
